Assay results reported in US20160113911A1, “METHODS AND COMPOSITIONS FOR THE TREATMENT OF CANCER” (THE GENERAL HOSPITAL CORPORATION, priority 2013, published 2016).
Numbering of substitutions follows the chain as printed. Names and notes keep the numbering of the source.

How the values were obtained:
[1] = tested on: KDM4A; assay: KDM4A protein levels by western blot; format: cell-based, human
Description: Western blot analyses were performed according to (Black et al., 2010).
Western blots were performed as in (Black et al., 2010). Briefly, adherent cells were either scraped directly into PBS, or washed with PBS, trypsinized and collected by centrifuging at 2,000 RPM for 5 minutes. For preparation of whole-cell lysates, cell pellets were washed once in ice-cold PBS and resuspended in RIPA lysis buffer [50 mM Tris pH 7.4, 150 mM NaCl, 0.25% Sodium Deoxycholate, 1% NP40, 1 mM EDTA, 10% Glycerol] supplemented with complete protease inhibitor and PhosSTOP™ phosphatase inhibitor cocktails (Roche). Cells were lysed on ice for 15 minutes and immediately frozen at −80° C. for 10 min. Lysates were subsequently sonicated at 70% amplitude for 15 minutes in a QSonica Q800R™ and cleared of cell debris by centrifuging at 12,000 RPM for 15 minutes, before being analyzed by western blotting. For HIF1α expression, adherent cells were washed twice with ice-cold PBS and scraped directly in warmed 1× Laemmli buffer. Samples were sonicated at 70% amplitude for 15 minutes and boiled immediately prior to western blotting.

[2] = tested on: RPE cells; assay: Flow cytometry cell cycle analysis; format: cell-based, human
Description: Asynchronously growing, or G1/S arrested cells were prepared and fixed as in (Black et al., 2010). Cells were stained with 10 μM EdU for 1 hour prior to collection. Cell cycle was analyzed by PI staining or EdU incorporation using Click-IT EdU™ Flow Cytometry Assay Kit (Life Technologies). Flow cytometry of CD4+ T cells and cell cycle distribution were analyzed using a BD FACS ARIA II™.

[3] = tested on: 1q12h copy gain in RPE cells; assay: FISH for site-specific copy gain; format: cell-based, human; settings: RPE cells
Description: FISH was performed as described in (Manning et al., 2010). Probes for 1q12h, 1q telomere, and chromosome 2, 6, 8, and X alpha satellite were purchased from Rainbow Scientific. Probes for 1q12 (RP11-80L2), Xq13.2 (RP11-451A22), Xq13.1 (RP11-177A4) were purchased as BAC clones from Children's Hospital Oakland Research Institute (CHORI BacPac) FISH verified clone repository. Oligonucleotide probes for 1q21.2 (BCL9) and 1q23.3 were purchased from Agilent (SureFISH). BACS were prepared utilizing PureLink HiPure Plasmid Filter Maxiprep kit (Life Technologies) using the recommended modified wash buffer. Probes were nick translated (Abbot Molecular Kit) in the presence of fluorescently labeled dTTP (Enzo Life Science). Images of multiple planes of fields of nuclei were acquired on an Olympus IX81 Spinning Disk Microscope and analyzed using Slidebook 5.0 software. We used a conservative scoring metric for copy gain. Any foci that were touching were scored as a single foci to prevent increased numbers due to normally replicated foci. For RPE cells, copy gain was scored as any cell with 3 or more distinct foci. For 293T cells, copy gain was scored for any cell with 5 or more distinct foci. For RPE cells each experiment includes at least one replicate from the two different polyclonal stable cell preparations. At least 100 cells for each replicate were scored for all experiments except analysis of single cell clones.
Cells were plated onto culture dishes and allowed to adhere for 20-24 hrs in normoxia (5% CO2, 21% O2, and 74% N2). For hypoxic treatment, cells were maintained in a HERA Cell 150™ incubator (Thermo Scientific) flushed with 5% CO2, 1% O2 or 4% O2, and balanced with N2 for the duration of the experiment. Incubator calibrations were carried out by Bianchi Associates Calibrations/Verifications.
To release, cells were washed twice with culture medium pre-conditioned in normoxia or hypoxia, and supplied with fresh pre-conditioned media. For JIB-04 treatment, normoxic cells were pre-treated with 62.5 nM JIB-04 (Xcessbio) for 24 hrs, then treated again with JIB-04 and either transferred to 1% O2 or maintained in normoxia for an additional 24 hrs. Succinate was administered at a final concentration of 2 mM and cells were either maintained in normoxia for 72 hrs or maintained in normoxia for 48 hrs prior to being transferred to 1% O2 for 24 hrs.
FISH was performed as described in (Black et al., 2013; Manning et al., 2010). Probes for 1q12h, 1q telomere, chromosome 8 centromere (alpha satellite), and X centromere (alpha satellite) were purchased from Rainbow Scientific. Probes for Xq13.1 (RP11-177A4), Zebrafish BCL9 (CH73-15J19) and Zebrafish IGBP1 (CH73-223D24) were purchased as BAC clones from Children's Hospital Oakland Research Institute (CHORI BacPac) clone repository. Probes for 1q21.2 (BCL9) and 1q23.3 were purchased from Agilent (SureFISH).
FISH was performed as described in (Black et al., 2013; Manning et al., 2010). Probes for 1q12h, 1q telomere, chromosome 8 centromere (alpha satellite), and X centromere (alpha satellite) were purchased from Rainbow Scientific. Probes for Xq13.1 (RP11-177A4), Zebrafish BCL9 (CH73-15J19) and Zebrafish IGBP1 (CH73-223D24) were purchased as BAC clones from Children's Hospital Oakland Research Institute (CHORI BacPac) clone repository. Probes for 1q21.2 (BCL9) and 1q23.3 were purchased from Agilent (SureFISH). BACS were prepared utilizing PureLink HiPure™ Plasmid Filter Maxiprep kit (Life Technologies) using the recommended modified wash buffer. Probes were nick translated (Abbot Molecular Kit) in the presence of fluorescently labeled dTTP (Enzo Life Science). Images of multiple planes of fields of nuclei were acquired on an Olympus IX81 T Spinning Disk Microscope and analyzed using Slidebook™ 5.0 software. A conservative scoring metric was used for copy gain. Any foci that were touching were scored as a single copy to prevent increased numbers due to normally replicated foci.

[4] = tested on: RPE cells; assay: Apoptosis by annexin V staining; format: cell-based, human; settings: RPE CTRL and KDM4A overexpressing cells
[5] = tested on: cells depleted of KDM4A (shA10); assay: Rapamycin sensitivity of KDM4A-depleted (shA10) cells transfected with wild-type or mutant KDM4A; format: cell-based; settings: shA10 depletion background
Description: Cells were depleted of KDM4A (shA10) and transfected with wild-type (WT) or mutant KDM4A. […] This differed from WT expression in the depletion background, which was less sensitive. […]
The effect of KMD4A mutations on drug sensitivity was examined by depleting cells of KDM4A (shA10) and then transfecting with wild-type or mutant KDM4A. The sensitivity of the cells to rapamycin was then determined. […] This differed from WT expression in the depletion background, which was less sensitive.

[6] = tested on: HEK 293T cells; assay: Monitored cell proliferation assay (xCELLigence growth curves, doubling time); format: cell-based, human
Description: Seventy two hours post transfection 1×10^4 HEK 293T cells were seeded per well of a 96 well plate, and then treated after 24h. Cell proliferation was monitored with an xCELLigence system (Roche) (Vistejnova et al., 2009).

[7] = tested on: H3K9me3; assay: H3K9 demethylase activity of KDM4 variants in transfected cells; format: cell-based; set-up: key: + indicates active; − indicates inactive; +/− indicates partial acitivty; settings: KDM4A mutations
[8] = tested on: H3K36me3; assay: H3K36 demethylase activity of KDM4A variants in transfected cells (immunofluorescence); format: cell-based; set-up: key: + indicates active; − indicates inactive; +/− indicates partial acitivty; settings: KDM4A mutations

Molecule: O=C(O)CCC(=O)O [succinate, reference compound]
- KDM4A protein levels in hypoxia ([1]; RPE cells, 1% O2): did not alter KDM4A stabilization
- cell cycle profile ([2]; normoxia and hypoxia): did not alter KDM4A stabilization or cell cycle progression
- hypoxia-dependent copy gain of 1q12h ([3]; 1% O2 24 hours, JIB-04 62.5 nM or 2 mM succinate pre-treatment, or overexpression): sufficient to abrogate hypoxia-dependent copy gain of 1q12h
- hypoxia-induced 1q12h copy number gains ([3]; 4% oxygen, transfection or 2 mM succinate for 24 hours): antagonized

Molecule: CCN1C(=O)C=CC1=O [NEM]
- hypoxia-induced changes in KDM4A levels and/or localization ([1]; 293T cells, 1% O2 6h, fractionated in presence of NEM): reduced
- KDM4A chromatin association ([1]; 293T cells, fractionated in presence of NEM): alters the chromatin association

Molecule: NC(=O)NO [HU, hydroxyurea]
- apoptosis (percent Annexin V positive cells) [4]: no observed increased apoptosis

Molecule: Tunicamycin
- KDM4A protein levels under stress ([1]; RPE cells, 24 hours): significantly increased KDM4A levels
- cell cycle profile under stress ([2]; 24 hours): resulted in altered cell cycle profiles
- site-specific copy gain (1q12h and 1q21.2) under stress ([3]; 24 hours, 2 μg/ml Tunicamycin): did not promote site-specific copy gain

B1: KDM4A WT: wild type KDM4A (major allele E482) (protein)
chain: MASESETLNPSARIMTFYPTMEEFRNFSRYIAYIESQGAHRAGLAKVVPPKEWKPRASYDDIDDLVIPAPIQQLVTGQSGLFTQYNIQKKAMTVREFRKIANSDKYCTPRYSEFEELERKYWKNLTFNPPIYGADVNGTLYEKHVDEWNIGRLRTILDLVEKESGITIEGVNTPYLYFGMWKTSFAWHTEDMDLYSINYLHFGEPKSWYSVPPEHGKRLERLAKGFFPGSAQSCEAFLRHKMTLISPLMLKKYGIPFDKVTQEAGEFMITFPYGYHAGFNHGFNCAESTNFATRRWIEYGKQAVLCSCRKDMVKISMDVFVRKFQPERYKLWKAGKDNTVIDHTLPTPEAAEFLKESELPPRAGNEEECPEEDMEGVEDGEEGDLKTSLAKHRIGTKRHRVCLEIPQEVSQSELFPKEDLSSEQYEMTECPAALAPVRPTHSSVRQVEDGLTFPDYSDSTEVKFEELKNVKLEEEDEEEEQEAAALDLSVNPASVGGRLVFSGSKKKSSSSLGSGSSRDSISSDSETSEPLSCRAQGQTGVLTVHSYAKGDGRVTVGEPCTRKKGSAARSFSERELAEVADEYMFSLEENKKSKGRRQPLSKLPRHHPLVLQECVSDDETSEQLTPEEEAEETEAWAKPLSQLWQNRPPNFEAEKEFNETMAQQAPHCAVCMIFQTYHQVEFGGFNQNCGNASDLAPQKQRTKPLIPEMCFTSTGCSTDINLSTPYLEEDGTSILVSCKKCSVRVHASCYGVPPAKASEDWMCSRCSANALEEDCCLCSLRGGALQRANDDRWVHVSCAVAILEARFVNIAERSPVDVSKIPLPRFKLKCIFCKKRRKRTAGCCVQCSHGRCPTAFHVSCAQAAGVMMQPDDWPFVVFITCFRHKIPNLERAKGALQSITAGQKVISKHKNGRFYQCEVVRLTTETFYEVNFDDGSFSDNLYPEDIVSQDCLQFGPPAEGEVVQVRWTDGQVYGAKFVASHPIQMYQVEFEDGSQLVVKRDDVYTLDEELPKRVKSRLSVASDMRFNEIFTEKEVKQEKKRQRVINSRYREDYIEPALYRAIME
modifications: left off: large carriers
- sensitivity of cells to rapamycin [5]: reduced the sensitivity of the cells
- rescue of increased sensitivity to AZD8055 due to KDM4A depletion (doubling time 5h-35h) ([6]; shRNA KDM4A plus non targetable GFP-KDM4A constructs): rescues
- rescue of increased sensitivity to Rapamycin of KDM4A depleted cells (doubling time 5h-35h) ([6]; shRNA KDM4A plus shRNA-resistant GFP-KDM4A constructs): rescues

B2: H188A: catalytic mutant of KDM4A (protein, UniProt O75164 2-1064, looked up, variant H188A)
Lysine-specific demethylase 4A: ASESETLNPSARIMTFYPTMEEFRNFSRYIAYIESQGAHRAGLAKVVPPKEWKPRASYDDIDDLVIPAPIQQLVTGQSGLFTQYNIQKKAMTVREFRKIANSDKYCTPRYSEFEELERKYWKNLTFNPPIYGADVNGTLYEKHVDEWNIGRLRTILDLVEKESGITIEGVNTPYLYFGMWKTSFAWATEDMDLYSINYLHFGEPKSWYSVPPEHGKRLERLAKGFFPGSAQSCEAFLRHKMTLISPLMLKKYGIPFDKVTQEAGEFMITFPYGYHAGFNHGFNCAESTNFATRRWIEYGKQAVLCSCRKDMVKISMDVFVRKFQPERYKLWKAGKDNTVIDHTLPTPEAAEFLKESELPPRAGNEEECPEEDMEGVEDGEEGDLKTSLAKHRIGTKRHRVCLEIPQEVSQSELFPKEDLSSEQYEMTECPAALAPVRPTHSSVRQVEDGLTFPDYSDSTEVKFEELKNVKLEEEDEEEEQAAAALDLSVNPASVGGRLVFSGSKKKSSSSLGSGSSRDSISSDSETSEPLSCRAQGQTGVLTVHSYAKGDGRVTVGEPCTRKKGSAARSFSERELAEVADEYMFSLEENKKSKGRRQPLSKLPRHHPLVLQECVSDDETSEQLTPEEEAEETEAWAKPLSQLWQNRPPNFEAEKEFNETMAQQAPHCAVCMIFQTYHQVEFGGFNQNCGNASDLAPQKQRTKPLIPEMCFTSTGCSTDINLSTPYLEEDGTSILVSCKKCSVRVHASCYGVPPAKASEDWMCSRCSANALEEDCCLCSLRGGALQRANDDRWVHVSCAVAILEARFVNIAERSPVDVSKIPLPRFKLKCIFCKKRRKRTAGCCVQCSHGRCPTAFHVSCAQAAGVMMQPDDWPFVVFITCFRHKIPNLERAKGALQSITAGQKVISKHKNGRFYQCEVVRLTTETFYEVNFDDGSFSDNLYPEDIVSQDCLQFGPPAEGEVVQVRWTDGQVYGAKFVASHPIQMYQVEFEDGSQLVVKRDDVYTLDEELPKRVKSRLSVASDMRFNEIFTEKEVKQEKKRQRVINSRYREDYIEPALYRAIME
- sensitivity of cells to rapamycin [5]: did not reduce drug sensitivity

B3: 2A-R1025C*: KDM4A mutation (protein, UniProt O75164 2-1064, looked up, variant R1025C)
Lysine-specific demethylase 4A: B2 Lysine-specific demethylase 4A with A187H, R1024C
- H3k9 Demethylase Activity [7]: +
- sensitivity of cells to rapamycin [5]: equally as sensitive as KDM4A/JMJD2A depletion
- H3k36 Demethylase Activity [8]: +
